Data: patent publication US20190388362A1, “PHARMACEUTICAL COMPOSITION FOR TREATING ORAL PRECANCER AND METHOD FOR PREDICTING OR DIAGNOSING ORAL PRECANCER OR ORAL CANCER” (MET Life Sciences Co., Ltd., priority 2017, published 2019)
Blank lines part the entries; values can stand above or below the compound they belong to.

Assays:
Snail [1] = experiment: Snail expression in cell lysate of colorectal cancer cells treated with HCA and BCA; format: cell-based; settings: at an nM level
Source text: (§1) According to the previous research results, it has been known that 2′-Hydroxycinnamaldehyde (HCA), which is a main component of cinnamon, and a derivative thereof, i.e., 2′-benzoyloxycinnamaldehyde (BCA) inhibit cancer metastasis through Snail expression inhibition by inhibiting LRP-1 receptors (Hwang H et al., J Neuroimmunol 2011, 230, 52-64; Ismail I A, et al., Breast Cancer Res Treat, 137, 697-708, 2013). Thus, to confirm whether HCA and BCA are capable of inhibiting Axin2 expression and Snail expression, colorectal cancer cells were treated with HCA and BCA, and it was examined whether Axin2 and Snail were expressed in a cell lysate. As HCA and BCA, those separated from cinnamon bark and purified were used (Hwang H et al., J Neuroimmunol 2011, 230, 52-64). As a result, as illustrated in FIGS. 11A and 11B, it was confirmed that HCA and BCA inhibited the expression of Axin2 and Snail at an nM level.

Axin2 [2] = experiment: Axin2 expression in cell lysate of colorectal cancer cells treated with HCA and BCA; format: cell-based; settings: at an nM level
Source text: as §1

Snail [3] = experiment: Western blotting of Snail in oral cancer and oral precancer cell lines; format: cell-based; settings: YD-10B, KB and D38 cell lines, 16 hours
Source text: (§2) The expression of Axin2 and Snail was confirmed in a cell lysate after treating YD-10B (CVCL-8929) and KB (CVC_L 0372), which are oral cancer cell lines, and D38, which is an oral precancer cell line (McGregor F. et al., CANCER RESEARCH 62, 4757-4766, 2002), with various concentrations of niclosamide by using the same method of Example 5.
(§3) For the YD-10B and KB cell lines, a RPMI1640 medium containing 10% FBS and 1% penicillin/streptomycin was used. For the oral precancer cell line D38, a DMEM: F12 (3:1) medium containing 10% FBS and 1% penicillin/streptomycin was used. The respective cells were treated with niclosamide at the indicated concentration for 16 hours and the expression of Axin2 and Snail was analyzed through western blotting.

oral cancer cells YD10B [4] = experiment: 3D culture model, YD10B; format: cell-based; settings: YD10B three-dimensionally cultured, 0.125 μM niclosamide
[5] = molecular target: T1, recombinant GSK3 beta / Axin peptide interaction (Homo sapiens, UniProt P49841); experiment: Competitive inhibition of recombinant GSK3 binding to FITC-conjugated 19-mer Axin peptide (bead fluorescence); settings: in proportionate to the concentration of niclosamide added; 2 hours
T1 construct: made in house; host or cells: Sf9 insect cells (GSK3 beta); peptide chemically synthesized (Peptron)
Source text: In the previously reported results of analyzing the structure of Axin-GSK3 binding, accumulation of the hydrophobic residues of Axin α-helix into a hydrophobic groove formed by the C-terminal loop of GSK3 is disclosed (Dajani R et al., EMBO J. 22:494-501, 2003), and thus the inventors of the present invention hypothesized that niclosamide would bind to the hydrophobic groove of GSK3 and interfere with the function of Axin. To verify this, in vitro analysis was designed to identify competitive inhibition of recombinant GSK3 binding to 19-mer FITC-conjugated Axin peptides by niclosamide.
Hig-tagged recombinant GSK3 beta was obtained from sf9 insect cells using a known method (Lee D G, et al. Nat Commun. 5:4423, 2014). The FITC-conjugated 19-mer Axin peptide (Axin1, 383-401, VEPQKFAEELIHRLEAVQR), which is known to bind to GSK3 as an amphipathic α-helix, was chemically synthesized (Peptron). To confirm competitive binding between the synthesized Axin peptide and niclosamide, His-tagged recombinant GSK3 and Ni—Ti beads were treated with niclosamide for 2 hours, and then washed three times with PBS, and quantitative fluorescence measurement was performed using Ni—Ti beads. Fluorescence intensity was represented in proportionate to the fluorescence intensity of a negative control from the 3rd experiment.

recombinant GSK3β = recombinant GSK3β (Homo sapiens, UniProt P49841); experiment: Surface plasma resonance (SPR) analysis on immobilized recombinant GSK3β; format: binding
Description: Surface plasma resonance (SPR) analysis was performed to confirm whether niclosamide directly binds to GSK3. SPR was conducted using the ProteOn™ XPR36 Protein Interaction Array system (Bio-Rad Laboratories, Inc., CA, USA), and purified recombinant GSK3β, was immobilized to a ProteOn GLH sensor chip. Niclosamide or 19-mer wild type Axin peptide or mutant peptide (VEPQKAAEEAIHRAEAVQR, mutation underlined) were diluted by phosphate-buffered saline+Tween 20+1% DMSO at different concentrations and then flowed over the chip at a rate of 100 μl/min. The results thereof were analyzed by ProteOn Manager Software 2.0 using the standard Langmuir models for fitting kinetic data. The rate of complex formation was represented by the association constant (ka, in the unit of M-1s-1), and the rate of complex decay was represented by the dissociation constant (kd, in the unit of s-1), as given by Equation 1 below.
A high-affinity interaction is represented by a low dissociation constant, and rapid recognition and binding with interactants (rapid “on rate,” or high ka) and the stability of complex formation (slow “off rate,” or low kd) are as shown in the following equation: KD=kd/ka.

[6] = tested on: oral precancer cell line D38; experiment: Soft agar colony formation assay, D38; format: cell-based; settings: 3 weeks, according to niclosamide treatment concentration
Description: (§4) The oral precancer cell line D38 and the oral cancer cell line YD10B were cultured on soft agar plates containing various concentrations of niclosamide. The corresponding concentration of niclosamide was administered while the respective cells were cultured on the soft agar plates for 3 weeks.

Axin2 [7] = experiment: Axin2 expression in colorectal cancer cell lines treated with niclosamide; format: cell-based; settings: HCT116, SW480, SW620 and DLD-1 cells; niclosamide at an nM level
[8] = tested on: oral precancer cell line D38; experiment: Trypan exclusion assay for apoptosis; format: cell-based; settings: D38, 72 hours, concentration-dependent
Description: The oral precancer cell line D38 was treated with various concentrations of niclosamide for 72 hours and apoptosis was confirmed through a trypan exclusion assay.

oral cancer cell line KB = experiment: Cell growth by counting cells in real time, KB; format: cell-based; settings: as the concentration of niclosamide was increased
Description: (§5) The oral cancer cell lines YD-10B and KB and the oral precancer cell line D38 were treated with various concentrations of niclosamide, and cell growth was measured by counting cells in real time.

Snail [9] = experiment: Snail expression in colorectal cancer cell lines treated with niclosamide; format: cell-based; settings: HCT116, SW480, SW620 and DLD-1 cells; niclosamide at an nM level
oral cancer cells YD10B [10] = experiment: YD10B oral cancer cell transplant in immunodeficient mice; format: in vivo; settings: 200 mg/kg (mpk), orally, daily; Balb/c athymic nude mice with YD10B cells
Source text: To confirm the effect of niclosamide on the inhibition of oral cancer in an animal model, oral cancer cells YD10B (3×10^6 cells) were transplanted to immunodeficient mice (Balb/c, athymic nude mice, NaraBiotech), the mice were divided into two groups, and then niclosamide was orally administered to the two groups daily.

KB cell line = experiment: Migration assay (crystal violet), KB; format: cell-based; settings: niclosamide-concentration-dependent
Description: (§6) Cell migration is regulated by Axin2 and Snail. In the present example, the YD-10B cell line, the KB cell line, and the oral precancer cell line D38 were treated with niclosamide, a migration assay was performed thereon, and then the cells were stained with crystal violet and cell migration values were measured.

[11] = tested on: oral cancer cell line YD-10B; experiment: Cell growth by counting cells in real time, YD-10B; format: cell-based; settings: as the concentration of niclosamide was increased
Description: as §5

[12] = tested on: oral precancer cell line D38; experiment: 3D culture model on collagen sheet, D38; format: cell-based; settings: 0.125 μM niclosamide
Description: To confirm the niclosamide treatment effect in a 3D culture model, the results of treatment with 0.125 μM niclosamide when the oral precancer cell line D38 was cultured on a collagen sheet are illustrated in FIG. 17, in part A thereof.

Axin2 [13] = experiment: Western blotting of Axin2 in oral cancer and oral precancer cell lines; format: cell-based; settings: YD-10B, KB and D38 cell lines, 16 hours
Source text: as §2, §3

[14] = tested on: oral cancer cell line YD10B; experiment: Soft agar colony formation assay, YD10B; format: cell-based; settings: 3 weeks, according to niclosamide treatment concentration
Description: as §4

[15] = tested on: oral precancer cell line D38; experiment: Cell growth by counting cells in real time, D38; format: cell-based; settings: as the concentration of niclosamide was increased
Description: as §5

[16] = tested on: oral precancer cell line D38; experiment: Migration assay (crystal violet), D38; format: cell-based; settings: niclosamide-concentration-dependent
Description: as §6

YD-10B cell line = experiment: Migration assay (crystal violet), YD-10B; format: cell-based; settings: niclosamide-concentration-dependent
Description: as §6

Axin-GSK3 complex = molecular target: T2, Axin-GSK3 complex (Homo sapiens, UniProt P49841); experiment: Immunoprecipitation of His-tagged Axin2 from MCF-7 cell lysate, immunoblot for GSK3; format: binding; settings: MCF-7 cells with His-tagged Axin2, Triton X-100 lysate, Ni-Ti beads
T2 construct: expressed in transfected cells; host or cells: MCF-7 (Axin2 transfected, doxycycline-induced; GSK3 endogenous)
Description: To confirm whether niclosamide is capable of inhibiting Axin-GSK3 interaction, cell lysates with full-length Axin2 were examined to perform immunoprecipitation experiments in the presence or absence of niclosamide.
An immunoprecipitation assay was performed as follows (Yook J I, et al. Nat Cell Biol. 8:1398-1406, 2006).
A doxycycline-induced His-tagged Axin2 expression vector was transfected into MCF-7 cells (ATCC, American Type Culture collection) and cultured, and a Triton X-100 lysate of whole cells was treated with Ni—Ti beads (Invitrogen) and niclosamide at each concentration to allow a reaction to occur therebetween. Proteins recovered in the beads were subjected to SDS-PAGE, followed by immunoblot analysis for GSK3, and a 1/20 volume of a control was added thereto.

Sequence of recombinant GSK3β (P49841 whole entry): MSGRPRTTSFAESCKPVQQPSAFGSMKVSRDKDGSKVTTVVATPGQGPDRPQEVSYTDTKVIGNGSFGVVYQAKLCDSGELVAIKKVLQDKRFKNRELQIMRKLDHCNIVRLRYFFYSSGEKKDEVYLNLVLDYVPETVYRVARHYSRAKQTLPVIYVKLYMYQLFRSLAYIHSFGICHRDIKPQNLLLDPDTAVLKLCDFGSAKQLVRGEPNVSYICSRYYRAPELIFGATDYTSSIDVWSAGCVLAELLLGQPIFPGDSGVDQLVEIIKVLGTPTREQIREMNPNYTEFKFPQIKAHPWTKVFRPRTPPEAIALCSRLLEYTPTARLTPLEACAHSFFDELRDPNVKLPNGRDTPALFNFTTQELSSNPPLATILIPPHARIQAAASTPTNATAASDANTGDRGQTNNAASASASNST
T1 sequence (P49841 whole entry): as above
T2 sequence (P49841 whole entry, one chain of several): as the sequence (P49841 whole entry) above

Compound: O=CC=Cc1ccccc1OC(=O)c1ccccc1 [BCA, 2′-benzoyloxycinnamaldehyde]
expression of Snail (Snail [1]): inhibited
expression of Axin2 (Axin2 [2]): inhibited

Compound: O=CC=Cc1ccccc1O [HCA, 2′-Hydroxycinnamaldehyde]
expression of Snail (Snail [1]): inhibited
expression of Axin2 (Axin2 [2]): inhibited

interaction between the recombinant GSK3 and the synthesized Axin peptide [5]: inhibited
direct binding to GSK3 (recombinant GSK3β): directly bound
Kd (recombinant GSK3β; GSK3β immobilized on sensor chip, read-out: equilibrium dissociation constant KD): 34 µM
GSK3 that binds to Axin2 in a total cell lysate (Axin-GSK3 complex): reduced
Compound: O=C(Nc1ccc([N+](=O)[O-])cc1Cl)c1cc(Cl)ccc1O [niclosamide]
expression of Snail (Snail [3]): inhibited
invasiveness of cancer cells (oral cancer cells YD10B [4]): rapidly reduced
colony formation [6]: inhibited
Axin2 expression (Axin2 [7]): decreased
apoptosis [8]: occurred
cell growth (oral cancer cell line KB): inhibited
Snail expression (Snail [9]): decreased
volume of tumors (oral cancer cells YD10B [10]): reduced
cell migration (KB cell line): inhibited
cell growth [11]: inhibited
cell density [12]: reduced
keratinocytic differentiation [12]: induced
basal membrane ([12]; destroyed in control): smooth basal membrane was observed
expression of Axin2 (Axin2 [13]): inhibited
colony formation [14]: inhibited
cell growth [15]: inhibited
cell migration [16]: inhibited
cell migration (YD-10B cell line): inhibited

direct binding to GSK3 (recombinant GSK3β): directly bound
Compound: CC[C@H](C)[C@H](NC(=O)[C@H](CC(C)C)NC(=O)[C@H](CCC(=O)O)NC(=O)[C@H](CCC(=O)O)NC(=O)[C@H](C)NC(=O)[C@H](Cc1ccccc1)NC(=O)[C@H](CCCCN)NC(=O)[C@H](CCC(N)=O)NC(=O)[C@@H]1CCCN1C(=O)[C@H](CCC(=O)O)NC(=O)[C@@H](N)C(C)C)C(=O)N[C@@H](Cc1c[nH]cn1)C(=O)N[C@@H](CCCNC(=N)N)C(=O)N[C@@H](CC(C)C)C(=O)N[C@@H](CCC(=O)O)C(=O)N[C@@H](C)C(=O)N[C@H](C(=O)N[C@@H](CCC(N)=O)C(=O)N[C@@H](CCCNC(=N)N)C(=O)O)C(C)C [wild type Axin peptide]

binding to GSK3 protein immobilized on a sensor surface (recombinant GSK3β; up to 100 μM): unable to bind
Compound: Mutant Axin peptide: mutant 19-mer Axin peptide VEPQKAAEEAIHRAEAVQR, mutations on hydrophobic residues
